From ChEMBL document CHEMBL4229501, “Synthesis, characterization and nociceptive screening of new VV-hemorphin-5 analogues” (Bioorg Med Chem Lett, 2018)
Calls of active or inactive are those of the source. The calls are words filed in the database; no cut-off is given here. Square brackets hold non-standard residues; d marks the D form. Peptide text beside a SMILES is read from it. Aib = CC(C)(N)C(=O)O

What was measured:
[1] = Anodic potential of the compound at pH 8.10 by differential pulse voltammetry; type: physicochemical; details: pH 8.1
[2] = Anodic potential of the compound at pH 6.86 by differential pulse voltammetry; type: physicochemical
[3] = Anodic potential of the compound at pH 10.20 by differential pulse voltammetry; type: physicochemical; details: pH 10.2
[4] = Dissociation constant, pKa of the compound at pH 5.02 to 10.20 by cyclic voltammetry; type: physicochemical
[5] = Anodic potential of the compound at pH 5.02 by differential pulse voltammetry; type: physicochemical
[6] = Anodic potential of the compound at pH 9.20 by differential pulse voltammetry; type: physicochemical; details: pH 9.2
[7] = Anodic potential of the compound at pH 6.02 by differential pulse voltammetry; type: physicochemical
Mus musculus [8] = assay: Antinociceptive activity in albino ICR mouse assessed as decrease in number of acetic acid-induced abdominal constriction at 25 to 100 ug/mouse, icv administered 5 mins prior to acetic acid challenge and measured every 5 mins for 30 mins post acetic acid challenge; type: functional, organism-based
Mus musculus [9] = assay: Antinociceptive activity in albino ICR mouse assessed as decrease in number of acetic acid-induced abdominal constriction at 100 ug/mouse, icv administered 5 mins prior to acetic acid challenge and measured every 5 mins for 10 mins post acetic acid challenge; type: functional, organism-based
Mus musculus [10] = assay: Antinociceptive activity in albino ICR mouse assessed as decrease in number of acetic acid-induced abdominal constriction at 25 ug/mouse, icv administered 5 mins prior to acetic acid challenge and measured every 5 mins for 30 mins post acetic acid challenge; type: functional, organism-based
Mus musculus [11] = assay: Antinociceptive activity in albino ICR mouse assessed as decrease in number of acetic acid-induced abdominal constriction at 100 ug/mouse, icv administered 5 mins prior to acetic acid challenge and measured at 5 mins post acetic acid challenge; type: functional, organism-based
Mus musculus [12] = assay: Antinociceptive activity in albino ICR mouse assessed as decrease in number of acetic acid-induced abdominal constriction at 100 ug/mouse, icv administered 5 mins prior to acetic acid challenge and measured every 5 mins for 15 mins post acetic acid challenge; type: functional, organism-based
Mus musculus [13] = assay: Antinociceptive activity in albino ICR mouse assessed as decrease in number of acetic acid-induced abdominal constriction at 25 to 50 ug/mouse, icv administered 5 mins prior to acetic acid challenge and measured every 5 mins for 30 mins post acetic acid challenge; type: functional, organism-based
Mus musculus [14] = assay: Antinociceptive activity in albino ICR mouse assessed as decrease in number of acetic acid-induced abdominal constriction at 50 ug/mouse, icv administered 5 mins prior to acetic acid challenge and measured every 5 mins for 30 mins post acetic acid challenge; type: functional, organism-based
Mus musculus [15] = assay: Antinociceptive activity in albino ICR mouse assessed as decrease in number of acetic acid-induced abdominal constriction at 50 to 100 ug/mouse, icv administered 5 mins prior to acetic acid challenge and measured every 5 mins for 30 mins post acetic acid challenge; type: functional, organism-based

| Molecule | Activity [1] [V] | Activity [2] [V] | Activity [3] [V] | pKa [4] | Activity [5] [V] | Activity [6] [V] | Activity [7] [V] | further results |
| --- | --- | --- | --- | --- | --- | --- | --- | --- |
| CC(C)[C@H](N)C(=O)N[C@H](C(=O)N[C@@H](Cc1ccc(O)cc1)C(=O)N1CCC[C@H]1C(=O)N[C@@H](Cc1c[nH]c2ccccc12)C(=O)N[C@H](C(=O)N[C@H](CCCCN)C(N)=O)[C@@H](C)O)C(C)C | – | – | – | – | – | – | – | Activity (Mus musculus [9]): Active; Activity (Mus musculus [10]): Active |
| CC(C)[C@H](N)C(=O)N[C@H](C(=O)N[C@@H](Cc1ccc(O)cc1)C(=O)N1CCC[C@H]1C(=O)N[C@@H](Cc1c[nH]c2ccccc12)C(=O)N[C@H](C(=O)N[C@@H](CCN)C(N)=O)[C@@H](C)O)C(C)C | 0.009 | 0.07 | 0 | 8.12 | 0.23 | 0.001 | 0.13 | – |
| CC(C)[C@H](N)C(=O)N[C@H](C(=O)N[C@@H](Cc1ccc(O)cc1)C(=O)N1CCC[C@H]1C(=O)N[C@@H](Cc1c[nH]c2ccccc12)C(=O)N[C@H](C(=O)N[C@H](CCN)C(N)=O)[C@@H](C)O)C(C)C | – | – | – | – | – | – | – | Activity (Mus musculus [11]): Active; Activity (Mus musculus [12]): inactive; Activity (Mus musculus [13]): Dose-dependent effect |
| CC(C)[C@H](N)C(=O)N[C@H](C(=O)N[C@@H](Cc1ccc(O)cc1)C(=O)N1CCC[C@H]1C(=O)N[C@@H](Cc1c[nH]c2ccccc12)C(=O)N[C@H](C(=O)N[C@H](CCCN)C(N)=O)[C@@H](C)O)C(C)C | – | – | – | – | – | – | – | Activity (Mus musculus [14]): Active; Activity (Mus musculus [10]): inactive |
| CC[C@H](C)[C@@H](N)C(=O)N[C@H](C(=O)N[C@H](C(=O)N[C@@H](Cc1ccc(O)cc1)C(=O)N1CCC[C@H]1C(=O)N[C@@H](Cc1c[nH]c2ccccc12)C(=O)N[C@H](C(=O)N[C@@H](CCC(N)=O)C(N)=O)[C@@H](C)O)C(C)C)C(C)C | – | – | – | – | – | – | – | Activity (Mus musculus [9]): inactive; Activity (Mus musculus [13]): Dose-dependent effect |
| H-VVYPWTQ-NH2 | 0.046 | 0.048 | 0.046 | 7.13 | 0.225 | 0.046 | 0.151 | Activity (Mus musculus [10]): inactive; Activity (Mus musculus [15]): Active |
| CC(C)[C@H](N)C(=O)N[C@H](C(=O)N[C@@H](Cc1ccc(O)cc1)C(=O)N1CCC[C@H]1C(=O)N[C@@H](Cc1c[nH]c2ccccc12)C(=O)N[C@H](C(=O)N[C@H](CN)C(N)=O)[C@@H](C)O)C(C)C | – | – | – | – | – | – | – | Activity (Mus musculus [8]): Active |

Now from value to molecule, other results behind:

| Activity [1] [V] | Activity [2] [V] | Activity [3] [V] | pKa [4] | Activity [5] [V] | Activity [6] [V] | Activity [7] [V] | Molecule | further results |
| --- | --- | --- | --- | --- | --- | --- | --- | --- |
| 0.025 | 0.101 | 0.03 | 8.17 | 0.232 | 0.031 | 0.175 | CC(C)[C@H](NC(=O)[C@@H](NC(=O)C(C)(C)N)C(C)C)C(=O)N[C@@H](Cc1ccc(O)cc1)C(=O)N1CCC[C@H]1C(=O)N[C@@H](Cc1c[nH]c2ccccc12)C(=O)N[C@H](C(=O)N[C@@H](CCC(N)=O)C(N)=O)[C@@H](C)O (H-[Aib]VVYPWTQ-NH2) | Activity (Mus musculus [8]): inactive |
| 0.075 | 0.117 | 0.079 | 7.83 | 0.225 | 0.082 | 0.175 | CC(C)[C@H](N)C(=O)N[C@H](C(=O)N[C@@H](Cc1ccc(O)cc1)C(=O)N1CCC[C@H]1C(=O)N[C@@H](Cc1c[nH]c2ccccc12)C(=O)N[C@H](C(=O)N[C@@H](CCCN)C(N)=O)[C@@H](C)O)C(C)C | – |
| 0.071 | 0.125 | 0.057 | 8.24 | 0.211 | 0.055 | 0.15 | CC(C)[C@H](N)C(=O)N[C@H](C(=O)N[C@@H](Cc1ccc(O)cc1)C(=O)N1CCC[C@H]1C(=O)N[C@@H](Cc1c[nH]c2ccccc12)C(=O)N[C@H](C(=O)N[C@@H](CCCCN)C(N)=O)[C@@H](C)O)C(C)C | – |
| 0.085 | 0.15 | 0.001 | 9.23 | 0.225 | 0.008 | 0.207 | CC(C)[C@H](N)C(=O)N[C@H](C(=O)N[C@@H](Cc1ccc(O)cc1)C(=O)N1CCC[C@H]1C(=O)N[C@@H](Cc1c[nH]c2ccccc12)C(=O)N[C@H](C(=O)N[C@@H](CN)C(N)=O)[C@@H](C)O)C(C)C | – |
| 0.062 | 0.11 | 0.06 | 8.01 | 0.213 | 0.067 | 0.16 | CC[C@H](C)[C@H](N)C(=O)N[C@H](C(=O)N[C@H](C(=O)N[C@@H](Cc1ccc(O)cc1)C(=O)N1CCC[C@H]1C(=O)N[C@@H](Cc1c[nH]c2ccccc12)C(=O)N[C@H](C(=O)N[C@@H](CCC(N)=O)C(N)=O)[C@@H](C)O)C(C)C)C(C)C | – |
